Measurements: ChEMBL document CHEMBL6177984, “Pyrazolo[1,5-a]pyrimidine-Based Type-I Photosensitizer as an Efficient Pyroptosis Inducer for Tumor Ablation” (J Med Chem, 2025)
The source made the active and inactive calls. The rule behind the calls is not given here.

Assays:
[1] = Dark cytotoxicity against human MDA-MB-231 cells assessed as cell viability incubated for 24 hrs by CCK8 assay; format: toxicity, cell-based
[2] = tested on: MDA-MB-231; test: Photocytotoxicity in human MDA-MB-231 cells assessed as cell viability at 1 uM preincubated with compound for 1 hr followed by light irradiated with 400 to 700 nm 100 mW/cm^2 for 10 mins and measured after 24 hrs by CCK-8 assay; format: functional, cell-based; conditions: time 1510.0 min
[3] = tested on: MDA-MB-231; test: Photocytotoxicity in human MDA-MB-231 cells assessed as cell viability preincubated with compound for 1 hr followed by light irradiated with 400 to 700 nm 100 mW/cm^2 for 10 mins and measured after 24 hrs by CCK-8 assay; format: functional, cell-based; conditions: MDA-MB-231, light or radiation study
[4] = tested on: MDA-MB-231; test: Induction of ROS production in human MDA-MB-231 cells assessed as increase in intracellular OH level at 0.3 uM preincubated with compound for 1 hr followed by light irradiation with 400 to 700 nm 100 mW/cm2 for 10 mins by HPF fluorescent probe based flow cytometry; format: functional, cell-based; conditions: time 70.0 min

| SMILES | IC50 at 24 h [1] | Activity [2] | IC50 [3] | Activity [4] |
| --- | --- | --- | --- | --- |
| C[N+]1=C(/C=C/c2ccc(-c3cnn4ccc(N5CCOCC5)nc34)s2)C(C)(C)c2ccccc21 | > 10000 nM | Active | 330 nM | – |
| O=S(=O)(O)c1cc(O)c(O)c(S(=O)(=O)O)c1 | – | – | – | Active |
| CC[N+]1=C(/C=C/c2ccc(-c3cnn4ccc(N5CCOCC5)nc34)s2)C(C)(C)c2cc(I)ccc21 | > 10000 nM | Active | 280 nM | – |
| CC[n+]1ccc(/C=C/c2ccc(-c3cnn4ccc(N5CCOCC5)nc34)s2)c2ccccc21 | > 10000 nM | – | 920 nM | – |
